Test results reported in PMC4467461, “Small-molecule activation of SERCA2a SUMOylation for the treatment of heart failure” (Nature Communications, 2015).

Molecular target: T1, ubiquitin-activating enzyme (Ub E1) (Homo sapiens, UniProt P22314)
T1 sequence (P22314 1-1058): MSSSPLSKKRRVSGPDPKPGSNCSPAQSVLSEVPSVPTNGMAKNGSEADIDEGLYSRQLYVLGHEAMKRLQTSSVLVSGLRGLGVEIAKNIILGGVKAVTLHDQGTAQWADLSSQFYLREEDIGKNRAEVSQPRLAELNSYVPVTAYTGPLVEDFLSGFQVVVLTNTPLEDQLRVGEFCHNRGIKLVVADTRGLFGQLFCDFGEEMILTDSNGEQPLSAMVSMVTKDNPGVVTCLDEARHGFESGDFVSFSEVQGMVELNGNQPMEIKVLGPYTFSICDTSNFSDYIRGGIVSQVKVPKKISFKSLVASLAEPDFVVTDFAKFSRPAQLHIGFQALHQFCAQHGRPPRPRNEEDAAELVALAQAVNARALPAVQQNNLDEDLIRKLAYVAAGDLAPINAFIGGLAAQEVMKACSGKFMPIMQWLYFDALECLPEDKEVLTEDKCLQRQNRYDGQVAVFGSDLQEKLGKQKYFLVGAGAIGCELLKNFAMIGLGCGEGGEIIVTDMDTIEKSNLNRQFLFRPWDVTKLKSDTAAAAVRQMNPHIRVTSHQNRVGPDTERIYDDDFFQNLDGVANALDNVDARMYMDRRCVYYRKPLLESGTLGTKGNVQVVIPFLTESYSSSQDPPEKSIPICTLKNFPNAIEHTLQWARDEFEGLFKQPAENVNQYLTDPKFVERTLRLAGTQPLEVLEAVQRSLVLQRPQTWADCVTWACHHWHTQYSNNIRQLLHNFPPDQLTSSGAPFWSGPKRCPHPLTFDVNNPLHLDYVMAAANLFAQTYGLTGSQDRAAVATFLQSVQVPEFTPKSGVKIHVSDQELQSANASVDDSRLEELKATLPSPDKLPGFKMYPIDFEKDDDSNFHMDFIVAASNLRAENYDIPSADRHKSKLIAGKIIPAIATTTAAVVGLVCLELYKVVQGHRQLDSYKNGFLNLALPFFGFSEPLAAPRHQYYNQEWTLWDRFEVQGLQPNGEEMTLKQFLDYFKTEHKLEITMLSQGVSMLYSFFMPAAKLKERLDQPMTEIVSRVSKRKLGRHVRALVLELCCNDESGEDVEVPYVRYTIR
Assay: Ubiquitin-activating E1 enzyme activity (ATP hydrolysis and in vitro conjugation assays)
Format: biochemical
Details: at concentrations up to 100 μM
Protocol: Biochemical activity of SUMO-specific E1 enzymes was examined by ATPase assay and in-vitro gel-shifting assays. ATP hydrolysis activity of E1 enzymes was measured by using pyrophosphate assay kit (Abcam Inc.). E1 (0.05 μM), 0.25 μM E2, 12.5 μM SUMO-1 and 1 mM ATP with N106 or DMSO were used for the assays. The E1-thioester formation was analysed in reaction mixtures containing 0.05 μM E1, 12.5 μM SUMO-1 and 1 mM ATP with N106 or DMSO. The E1-dependent E2-SUMO-1 thioester formation was assessed using reaction containing 0.05 μM E1, 0.25 μM E2, 12.5 μM SUMO-1 and 1 mM ATP with N106 or DMSO. Assays were incubated at 37 °C for 30 min and were mixed with non-reducing sample buffer, and analysed in non-reducing condition. Western blotting using antibodies against SAE2 and Ubc9 detected the SUMO conjugations. […]
Supplementary Figure 5. […] Ubiquitin activating E1 enzyme activity was determined by ATP hydrolysis and in vitro conjugation assays. […] Inorganic pyrophosphate resulting from ATP hydrolysis in E1-catalazed ubiquitin activity was quantified with the use of a fluorogenic pyrophosphate assay kit. […] Thioester bond formation between ubiquitin specific E1 enzyme and ubiquitin were detected by Western blot analysis. […] E1-dependent thioester bond formation between E2 and ubiquitin was detected by Western blotting with anti-ubiquitin antibody. […]

in-vitro activity of Ub E1 (ubiquitin activation, conjugation of ubiquitin to Ub E1, Ub E1-dependent conjugation to E2 cdc32): did not significantly stimulate
SMILES: COc1ccc(-c2nnc(Nc3nc4c(OC)cccc4s3)o2)cc1 [Compound N106, N-(4-methoxybenzo[d]thiazol-2-yl)-5-(4-methoxyphenyl)-1,3,4-oxadiazol-2-amine]
